This passage reports Ki results from patent US9062078B2, “Substituted 7-azabicyles and their use as orexin receptor modulators” (priority 2013, dated 2015).

In assay [1] the target is rat orexin 1 receptor (Rattus norvegicus, UniProt P56718). Put plainly: Rat orexin 1 receptor radioligand binding (competitive, [3H]-SB674042, HEK293 cell preparations).
Assay [2] addresses human orexin 1 receptor (Homo sapiens (Human), UniProt O43613). The experiment in a line: Human orexin 1 receptor radioligand binding (competitive, [3H]-SB674042, CHO cell preparations).
For assay [3], the target named is human orexin 2 receptor (Homo sapiens (Human), UniProt O43614). Put plainly: Human orexin 2 receptor radioligand binding (competitive, [3H]-EMPA, HEK293 cell preparations).
The mark [4] stands for this setting: rat orexin 1 receptor, [3H]-SB674042 competition binding, read-out: rOX1 Ki (nm).
The mark [5] stands for this setting: human orexin 1 receptor, [3H]-SB674042 competition binding, read-out: hOX1 Ki (nm).
Setting [6] is: human orexin 2 receptor, [3H]-EMPA competition binding, read-out: hOX2 Ki (nm).

Like-named read-outs stand apart in the source and are kept apart here.

human orexin 2 receptor, sequence (O43614 whole entry): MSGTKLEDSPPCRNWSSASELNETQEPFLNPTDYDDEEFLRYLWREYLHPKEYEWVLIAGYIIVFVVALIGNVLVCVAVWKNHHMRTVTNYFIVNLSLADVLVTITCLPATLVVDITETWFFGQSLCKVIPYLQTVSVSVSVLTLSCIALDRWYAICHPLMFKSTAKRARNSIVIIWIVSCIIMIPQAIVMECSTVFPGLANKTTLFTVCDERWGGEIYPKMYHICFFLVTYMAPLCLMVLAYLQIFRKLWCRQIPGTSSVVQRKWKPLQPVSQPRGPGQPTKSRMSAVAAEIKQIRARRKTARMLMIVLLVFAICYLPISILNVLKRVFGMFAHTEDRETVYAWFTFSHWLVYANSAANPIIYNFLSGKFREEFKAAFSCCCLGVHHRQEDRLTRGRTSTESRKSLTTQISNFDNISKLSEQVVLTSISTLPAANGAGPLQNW
human orexin 1 receptor, sequence (O43613 whole entry): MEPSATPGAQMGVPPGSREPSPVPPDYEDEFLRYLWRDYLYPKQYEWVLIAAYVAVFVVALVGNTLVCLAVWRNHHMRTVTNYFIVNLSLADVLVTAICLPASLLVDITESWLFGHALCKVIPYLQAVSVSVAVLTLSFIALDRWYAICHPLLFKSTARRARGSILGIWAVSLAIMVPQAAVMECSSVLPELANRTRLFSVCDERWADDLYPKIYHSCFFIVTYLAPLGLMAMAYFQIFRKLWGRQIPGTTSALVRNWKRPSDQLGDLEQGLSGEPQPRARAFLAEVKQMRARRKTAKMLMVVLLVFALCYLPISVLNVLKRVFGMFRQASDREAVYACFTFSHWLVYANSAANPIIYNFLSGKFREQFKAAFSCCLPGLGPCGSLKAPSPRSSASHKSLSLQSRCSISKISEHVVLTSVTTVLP

With `Cc1ccc(-c2ncccn2)c(C(=O)N2C3CCC2C(COc2ccccn2)C3)n1` (racemic) [Example 2, (±)-(6-methyl-3-(pyrimidin-2-yl)pyridin-2-yl)(2-((pyridin-2-yloxy)methyl)-7-azabicyclo[2.2.1]heptan-7-yl)methanone], the Ki (usually a measure of affinity in units of concentration, obtained from inhibition or displacement) in assay [1] (rOX1 Ki (nm)) stood at 31 nM; in assay [2] (hOX1 Ki (nm)), 23 nM; in assay [3] (hOX2 Ki (nm)) it was 500 nM.
In the case of `Cc1ccc(-c2ncccn2)c(C(=O)N2C3CCC2C(COc2ccc(F)cn2)C3)c1` (racemic) [Example 33, (±)-(2-(((5-fluoropyridin-2-yl)oxy)methyl)-7-azabicyclo[2.2.1]heptan-7-yl)(5-methyl-2-(pyrimidin-2-yl)phenyl)methanone], the Ki in assay [1] (setting [4]) was found to be 15 nM; in assay [2] (setting [5]), 9 nM; in assay [3] (setting [6]) it was 39 nM.
In the same order, the values of `O=C(c1c(F)cccc1-n1nccn1)N1C2CCC1C(COc1cnc3ccccc3n1)C2` (racemic) [Example 35, (±)-(2-fluoro-6-(2H-1,2,3-triazol-2-yl)phenyl)(2-((quinoxalin-2-yloxy)methyl)-7-azabicyclo[2.2.1]heptan-7-yl)methanone] are 69 nM, 58 nM and 693 nM.
In the case of `Cc1ccc(-n2nccn2)c(C(=O)N2C3CCC2C(COc2ccc(Br)cn2)C3)n1` (racemic) [Example 49, (±)-(2-(((5-bromopyridin-2-yl)oxy)methyl)-7-azabicyclo[2.2.1]heptan-7-yl)(6-methyl-3-(2H-1,2,3-triazol-2-yl)pyridin-2-yl)methanone], the inhibition constant Ki came out at 81 nM in assay [1] (rOX1 Ki (nm)), 69 nM in assay [2] (hOX1 Ki (nm)) and 192 nM in assay [3] (setting [6]).
As for `Cc1ccc(-n2nccn2)c(C(=O)N2C3CCC2C(COc2ncccc2C)C3)n1` (racemic) [Example 55, (±)-(6-methyl-3-(2H-1,2,3-triazol-2-yl)pyridin-2-yl)(2-(((3-methylpyridin-2-yl)oxy)methyl)-7-azabicyclo[2.2.1]heptan-7-yl)methanone], the results for the inhibition constant Ki in assay [1] (rOX1 Ki (nm)), in assay [2] (hOX1 Ki (nm)) and in assay [3] (setting [6]) were 119 nM, 150 nM and 202 nM, respectively.
Taken in the same sequence, the figures for `Cc1ccc(-n2nccn2)c(C(=O)N2C3CCC2C(COc2cccnc2)C3)n1` (racemic) [Example 58, (±)-(6-methyl-3-(2H-1,2,3-triazol-2-yl)pyridin-2-yl)(2-((pyridin-3-yloxy)methyl)-7-azabicyclo[2.2.1]heptan-7-yl)methanone] were 88 nM, 117 nM and 2400 nM.
For `Cc1cccc(OCC2CC3CCC2N3C(=O)c2nc(C)ccc2-n2nccn2)n1` (racemic) [Example 62, (±)-(6-methyl-3-(2H-1,2,3-triazol-2-yl)pyridin-2-yl)(2-(((6-methylpyridin-2-yl)oxy)methyl)-7-azabicyclo[2.2.1]heptan-7-yl)methanone], the Ki in assay [1] (setting [4]) was 74 nM; in assay [2] (setting [5]) it was 46 nM; in assay [3] (hOX2 Ki (nm)) it was 188 nM.
`Cc1ccc(-c2ncco2)c(C(=O)N2C3CCC2C(COc2ccc(F)cn2)C3)n1` (racemic) [Example 63, (±)-(2-(((5-fluoropyridin-2-yl)oxy)methyl)-7-azabicyclo[2.2.1]heptan-7-yl)(6-methyl-3-(oxazol-2-yl)pyridin-2-yl)methanone]: the Ki in assay [1] (setting [4]) turned out to be 25 nM; in assay [2] (setting [5]) it was 25 nM; in assay [3] (setting [6]), 339 nM.
With `Cc1ccc(-c2ncccn2)c(C(=O)N2C3CCC2C(COc2ccc(F)cn2)C3)n1` (racemic) [Example 64, (±)-(2-(((5-fluoropyridin-2-yl)oxy)methyl)-7-azabicyclo[2.2.1]heptan-7-yl)(6-methyl-3-(pyrimidin-2-yl)pyridin-2-yl)methanone], the figures for the Ki in assay [1] (setting [4]), in assay [2] (setting [5]) and in assay [3] (setting [6]) were 18 nM, 24 nM and 81 nM, respectively.
Regarding `Cc1ccc(-c2nc(C)no2)c(C(=O)N2C3CCC2C(COc2ccc(F)cn2)C3)n1` (racemic) [Example 66, (±)-(2-(((5-fluoropyridin-2-yl)oxy)methyl)-7-azabicyclo[2.2.1]heptan-7-yl)(6-methyl-3-(3-methyl-1,2,4-oxadiazol-5-yl)pyridin-2-yl)methanone], the results for the inhibition constant (Ki) in assay [1] (setting [4]), in assay [2] (setting [5]) and in assay [3] (setting [6]) were 197 nM, 293 nM and 620 nM, respectively.
In the same order, the values of `Cc1ccc(-n2ccc(C)n2)c(C(=O)N2C3CCC2C(COc2ccc(F)cn2)C3)n1` (racemic) [Example 67, (±)-(2-(((5-fluoropyridin-2-yl)oxy)methyl)-7-azabicyclo[2.2.1]heptan-7-yl)(6-methyl-3-(3-methyl-1H-pyrazol-1-yl)pyridin-2-yl)methanone] are 48 nM, 69 nM and 258 nM.
In the same order, the values of `Cc1ccc(N2CCCC2)c(C(=O)N2C3CCC2C(COc2ccc(F)cn2)C3)n1` (racemic) [Example 68, (±)-(2-(((5-fluoropyridin-2-yl)oxy)methyl)-7-azabicyclo[2.2.1]heptan-7-yl)(6-methyl-3-(pyrrolidin-1-yl)pyridin-2-yl)methanone] are 27 nM, 22 nM and 576 nM.
In the case of `Cc1cc(-c2ccc(C)nc2C(=O)N2C3CCC2C(COc2ccc(F)cn2)C3)on1` (racemic) [Example 69, (±)-(2-(((5-fluoropyridin-2-yl)oxy)methyl)-7-azabicyclo[2.2.1]heptan-7-yl)(6-methyl-3-(3-methylisoxazol-5-yl)pyridin-2-yl)methanone], the inhibition constant (Ki) in assay [1] (rOX1 Ki (nm)) stood at 40 nM; in assay [2] (hOX1 Ki (nm)), 64 nM; in assay [3] (setting [6]) it was 174 nM.
On to `Cc1ccc(-n2cccn2)c(C(=O)N2C3CCC2C(COc2ccc(F)cn2)C3)n1` (racemic) [Example 70, (±)-(2-(((5-fluoropyridin-2-yl)oxy)methyl)-7-azabicyclo[2.2.1]heptan-7-yl)(6-methyl-3-(1H-pyrazol-1-yl)pyridin-2-yl)methanone], for which the results for the Ki in assay [1] (setting [4]), in assay [2] (setting [5]) and in assay [3] (setting [6]) were 88 nM, 62 nM and 624 nM, respectively.
In the same order, the values of `Cc1ccnc(C(=O)N2C3CCC2C(COc2ccccn2)C3)c1-n1nccn1` (racemic) [Example 72, (±)-(4-methyl-3-(2H-1,2,3-triazol-2-yl)pyridin-2-yl)(2-((pyridin-2-yloxy)methyl)-7-azabicyclo[2.2.1]heptan-7-yl)methanone] are 137 nM, 162 nM and 2400 nM.
On to `CCOc1ccc2cccnc2c1C(=O)N1C2CCC1C(COc1ccccn1)C2` (racemic) [Example 75, (±)-(7-ethoxyquinolin-8-yl)(2-((pyridin-2-yloxy)methyl)-7-azabicyclo[2.2.1]heptan-7-yl)methanone], for which the Ki was found to be 18 nM in assay [1] (setting [4]), 7 nM in assay [2] (setting [5]) and 220 nM in assay [3] (setting [6]).
`Cn1cc(-c2ccccc2)c(C(=O)N2C3CCC2C(COc2ccccn2)C3)n1` (racemic) [Example 77, (±)-(1-methyl-4-phenyl-1H-pyrazol-3-yl)(2-((pyridin-2-yloxy)methyl)-7-azabicyclo[2.2.1]heptan-7-yl)methanone]: the inhibition constant (Ki) in assay [1] (setting [4]) came to 103 nM; in assay [2] (setting [5]) it was 66 nM; in assay [3] (hOX2 Ki (nm)), 867 nM.
In the case of `CCOc1ncc2ccccc2c1C(=O)N1[C@@H]2CC[C@H]1[C@H](COc1ccccn1)C2` [Example 164, (3-ethoxyisoquinolin-4-yl)((1S,2R,4R)-2-((pyridin-2-yloxy)methyl)-7-azabicyclo[2.2.1]heptan-7-yl)methanone], the results for the inhibition constant (Ki) in assay [1] (read-out: rOX1 Ki (nm)) and in assay [2] (read-out: hOX1 Ki (nm)) were 9 nM and 7 nM, respectively.
